Data from ChEMBL document CHEMBL5120844, “Discovery of novel non-steroidal selective glucocorticoid receptor modulators by structure- and IGN-based virtual screening, structural optimization, and biological evaluation” (Eur J Med Chem, 2022).
Calls of active or inactive are those of the source. The rule behind the calls is not given here.

Tests used:
[1] = Inhibition of NF-kappaB transcriptional activity in human HeLa cells transfected with NF-kappaB-Luc by dual-luciferase reporter gene assay; type: cell-based
[2] = system: HeLa; assay: Inhibition of NF-kappaB transcriptional activity in human HeLa cells transfected with NF-kappaB-Luc at 10 uM by dual-luciferase reporter gene assay relative to control; type: cell-based
[3] = system: RAW264.7; assay: Anti-inflammatory activity against mouse RAW264.7 cells assessed as reduction in LPS-induced IL-1beta mRNA expression level preincubated for 1 hr followed by LPS addition and measured after 16 hrs by qRT-PCR analysis; type: functional, cell-based; conditions: time 17.0 hrs
[4] = system: RAW264.7; assay: Anti-inflammatory activity against mouse RAW264.7 cells assessed as reduction in LPS-induced COX-2 mRNA expression level preincubated for 1 hr followed by LPS addition and measured after 16 hrs by qRT-PCR analysis; type: functional, cell-based; conditions: time 17.0 hrs
[5] = system: NIH3T3; assay: Cytotoxicity against mouse 3T3 cells assessed as reduction in cell viability after 24 hrs by MTT assay; type: toxicity, cell-based; conditions: nih3t3, 24 h
[6] = system: RAW264.7; assay: Anti-inflammatory activity against mouse RAW264.7 cells assessed as reduction in LPS-induced IL-6 mRNA expression level preincubated for 1 hr followed by LPS addition and measured after 16 hrs by qRT-PCR analysis; type: functional, cell-based; conditions: time 17.0 hrs
[7] = target: T1, Glucocorticoid receptor (Homo sapiens) (UniProt P04150); assay: Binding affinity to recombinant human GST-tagged glucocorticoid receptor ligand binding domain at 10 uM by TR-FRET assay relative to control; conditions: filed as modulator
T1 sequence (whole entry): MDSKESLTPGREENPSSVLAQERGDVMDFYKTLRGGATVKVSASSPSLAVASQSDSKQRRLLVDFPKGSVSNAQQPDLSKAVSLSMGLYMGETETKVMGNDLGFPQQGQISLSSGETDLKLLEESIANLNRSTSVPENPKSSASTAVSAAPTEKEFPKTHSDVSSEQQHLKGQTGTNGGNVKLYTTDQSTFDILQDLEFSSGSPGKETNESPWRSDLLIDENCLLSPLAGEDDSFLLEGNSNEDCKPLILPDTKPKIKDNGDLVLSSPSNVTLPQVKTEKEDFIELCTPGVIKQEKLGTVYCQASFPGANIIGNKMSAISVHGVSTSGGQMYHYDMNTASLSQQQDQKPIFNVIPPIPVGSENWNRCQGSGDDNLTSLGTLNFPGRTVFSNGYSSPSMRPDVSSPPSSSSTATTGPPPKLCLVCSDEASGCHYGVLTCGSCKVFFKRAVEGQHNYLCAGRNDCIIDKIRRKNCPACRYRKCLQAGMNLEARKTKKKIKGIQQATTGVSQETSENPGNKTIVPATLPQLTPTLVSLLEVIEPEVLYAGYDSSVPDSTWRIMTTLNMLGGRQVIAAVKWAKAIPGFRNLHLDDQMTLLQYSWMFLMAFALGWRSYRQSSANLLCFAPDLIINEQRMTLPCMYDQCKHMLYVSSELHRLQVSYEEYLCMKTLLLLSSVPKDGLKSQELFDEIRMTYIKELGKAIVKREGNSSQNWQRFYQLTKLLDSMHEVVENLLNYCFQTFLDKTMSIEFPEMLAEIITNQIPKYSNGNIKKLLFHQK

[8] = system: MG-63; assay: Induction of osteoporosis in human MG-63 cells assessed as decrease in OPG mRNA expression level at 10 uM by qRT-PCR analysis; type: functional, cell-based
[9] = system: MG-63; assay: Induction of osteoporosis in human MG-63 cells assessed as decrease in RANKL mRNA expression level at 10 uM by qRT-PCR analysis; type: functional, cell-based
[10] = target: T2, Glucocorticoid receptor (Homo sapiens, UniProt P04150); assay: (§1) Binding affinity to recombinant human GST-tagged glucocorticoid receptor ligand binding domain by TR-FRET assay relative to control
T2 sequence (P04150 whole entry): T1 sequence (whole entry)

[11] = target: T1, Glucocorticoid receptor (Homo sapiens); assay: as §1; conditions: filed as modulator, DDE = dose-dependent effect
[12] = system: RAW264.7; assay: Anti-inflammatory activity against mouse RAW264.7 cells assessed as inhibition of LPS-induced NO production at 25 uM incubated for 16 hrs by Greiss reagent assay; type: functional, cell-based
[13] = system: RAW264.7; assay: Cytotoxicity against mouse RAW264.7 cells assessed as reduction in cell viability at 25 uM incubated for 48 hrs by MTT assay; type: toxicity, cell-based; conditions: raw264.7, 48 h
[14] = system: A549; assay: Anti-inflammatory activity against human A549 cells assessed as reduction in TNFalpha induced IL-1beta mRNA expression level by qRT-PCR analysis; type: functional, cell-based
[15] = system: RAW264.7; assay: Anti-inflammatory activity against mouse RAW264.7 cells assessed as reduction in LPS-induced […] mRNA expression level preincubated for 1 hr followed by LPS addition and measured after 16 hrs by qRT-PCR analysis; type: functional, cell-based; conditions: time 17.0 hrs
[16] = target: T3, Mineralocorticoid receptor (Homo sapiens) (UniProt P08235); assay: Agonist activity at mineralocorticoid receptor (unknown origin) expressed in HEK293T cells co-transfected with pGL4.36[luc2P MMTV Hygro]/Renilla at 10 to 25 uM incubated for 16 hrs by luciferase reporter gene assay; type: cell-based; conditions: filed as agonist, dose 10-25 µM
T3 sequence (whole entry): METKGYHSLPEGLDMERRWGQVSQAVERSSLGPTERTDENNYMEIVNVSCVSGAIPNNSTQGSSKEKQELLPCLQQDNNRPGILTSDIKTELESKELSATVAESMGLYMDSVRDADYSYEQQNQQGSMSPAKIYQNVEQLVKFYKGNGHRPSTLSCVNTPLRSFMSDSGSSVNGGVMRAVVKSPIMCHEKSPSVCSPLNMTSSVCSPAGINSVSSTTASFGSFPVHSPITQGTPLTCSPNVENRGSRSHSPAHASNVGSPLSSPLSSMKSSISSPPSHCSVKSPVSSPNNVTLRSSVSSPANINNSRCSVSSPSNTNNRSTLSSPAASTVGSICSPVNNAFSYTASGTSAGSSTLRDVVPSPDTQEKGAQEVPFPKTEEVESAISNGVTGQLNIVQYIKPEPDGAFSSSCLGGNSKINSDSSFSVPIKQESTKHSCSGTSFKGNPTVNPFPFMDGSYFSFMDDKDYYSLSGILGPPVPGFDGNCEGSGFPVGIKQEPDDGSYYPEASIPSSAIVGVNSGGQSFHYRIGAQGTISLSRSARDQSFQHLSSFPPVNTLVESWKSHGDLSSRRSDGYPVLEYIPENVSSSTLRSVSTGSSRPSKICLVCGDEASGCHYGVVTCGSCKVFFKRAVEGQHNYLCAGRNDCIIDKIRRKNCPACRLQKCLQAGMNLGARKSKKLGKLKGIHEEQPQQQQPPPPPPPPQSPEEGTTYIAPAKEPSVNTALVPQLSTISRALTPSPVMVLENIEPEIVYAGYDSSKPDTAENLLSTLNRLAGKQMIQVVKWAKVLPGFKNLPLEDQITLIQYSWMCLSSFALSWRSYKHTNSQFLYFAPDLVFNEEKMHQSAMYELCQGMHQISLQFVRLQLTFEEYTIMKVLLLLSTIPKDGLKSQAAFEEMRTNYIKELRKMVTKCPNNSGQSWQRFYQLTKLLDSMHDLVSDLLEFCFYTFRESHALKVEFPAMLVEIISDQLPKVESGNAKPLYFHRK

[17] = target: T4, Progesterone receptor (Homo sapiens) (UniProt P06401); assay: Agonist activity at progesterone receptor (unknown origin) expressed in PC3 cells co-transfected with ARR3tk-luciferase/Renilla at 10 to 25 uM incubated for 16 hrs by luciferase reporter gene assay; type: cell-based; conditions: PC-3, filed as agonist, dose 10-25 µM
T4 sequence (whole entry): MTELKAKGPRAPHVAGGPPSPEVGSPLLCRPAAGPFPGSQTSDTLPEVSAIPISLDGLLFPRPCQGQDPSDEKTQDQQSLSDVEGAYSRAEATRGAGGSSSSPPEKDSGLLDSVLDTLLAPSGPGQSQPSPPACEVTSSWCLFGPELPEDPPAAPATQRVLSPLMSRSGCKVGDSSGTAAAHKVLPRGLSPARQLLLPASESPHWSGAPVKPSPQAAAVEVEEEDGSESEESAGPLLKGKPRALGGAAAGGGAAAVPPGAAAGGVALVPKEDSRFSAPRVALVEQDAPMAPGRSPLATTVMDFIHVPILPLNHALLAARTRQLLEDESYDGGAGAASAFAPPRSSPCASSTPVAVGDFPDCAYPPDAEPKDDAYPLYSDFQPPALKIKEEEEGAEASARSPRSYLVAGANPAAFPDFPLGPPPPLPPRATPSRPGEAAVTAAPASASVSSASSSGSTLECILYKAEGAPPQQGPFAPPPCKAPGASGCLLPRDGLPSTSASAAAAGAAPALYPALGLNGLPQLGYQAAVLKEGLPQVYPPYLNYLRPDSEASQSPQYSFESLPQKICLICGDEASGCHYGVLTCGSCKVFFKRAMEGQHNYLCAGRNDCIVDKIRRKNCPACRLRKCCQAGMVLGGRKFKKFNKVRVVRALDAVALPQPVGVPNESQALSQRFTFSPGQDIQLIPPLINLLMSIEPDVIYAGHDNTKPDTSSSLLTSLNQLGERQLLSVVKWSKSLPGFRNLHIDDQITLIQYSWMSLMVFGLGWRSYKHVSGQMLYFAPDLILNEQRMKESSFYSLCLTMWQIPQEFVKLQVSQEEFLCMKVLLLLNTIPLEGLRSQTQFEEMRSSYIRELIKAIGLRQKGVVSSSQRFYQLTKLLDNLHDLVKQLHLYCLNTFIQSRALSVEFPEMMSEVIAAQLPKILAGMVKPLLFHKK

`COc1ccc(CNC(=O)c2ccc(Cn3c(=S)[nH]c4ccsc4c3=O)cc2)cc1` gave an IC50 [1] of 7.38 µM and an inhibition [2] of 93.1%.

With `C[C@H](NC(=O)c1ccc(Cn2c(=S)[nH]c3ccsc3c2=O)cc1)c1ccccc1` the Activity [3] was “Active”, the Activity [4] was “Active” and the IC50 [1] was 1.92 µM. For the same molecule, the Activity [5] was “Non-Toxic” and the Activity [6] was “Active”.

Work on `O=C(c1ccc2c(=O)n(Cc3ccc(Cl)cc3)c(=S)[nH]c2c1)N(CCO)Cc1ccccc1` yielded an inhibition [2] of 75.8%.

With `CC(NC(=O)c1ccc(/C=C2/Sc3ccccc3NC2=O)cc1)c1ccc2c(c1)OCCO2` (configuration not stated) the IC50 [1] was 18.3 µM and the inhibition [2] was 67%.

With `Cn1c(=O)n(C)c2cc(NC(=O)c3ccc(CN4CCc5ccccc5C4)cc3)ccc21` the inhibition [2] was 10.6%.

In the case of `Cc1ccc(S(=O)(=O)NCc2ccc(C(=O)NC(C)c3ccccc3)cc2)cc1` (configuration not stated), the inhibition [2] is reported as 51.3%.

With `O=C(NCc1cccnc1)c1ccc(Cn2c(=S)[nH]c3ccsc3c2=O)cc1` the inhibition [2] was 76%.

Work on `CC(NC(=O)c1ccc(CN2CC(=O)N3CSC[C@@H]3C2=O)cc1)c1ccccc1` (some centres not stated) yielded an inhibition [2] of 34.1%.

For `CC(NC(=O)c1ccc(Cn2c(=S)[nH]c3ccsc3c2=O)cc1)c1ccccc1` (configuration not stated), the Activity [7] was less than 60%, the Activity [8] was “Toxic” and the Activity [3] was “Active”. For the same molecule, the Activity [4] was “Active”, the Activity [9] was “Non-Toxic” and the IC50 [10] was 2.05 µM. The Activity [11] was “Dde”, the IC50 [1] was 2.32 µM and the inhibition [12] was “Active”. The inhibition [2] was 86.9%, the Activity [13] was “Non-Toxic” and the Activity [6] was “Active”. For the same molecule, the Activity [14] was “Active”.

With `CC(C)[C@H](NC(=O)C(C)(F)F)[C@H](Oc1ccc2c(cnn2-c2ccc(=O)n(C)c2)c1)c1ccccc1` the Activity [8] was “Toxic” and the Activity [9] was “Non-Toxic”.

`CC(NC(=O)c1ccc(Cn2c(=S)[nH]c3ccsc3c2=O)cc1)c1ccc2c(c1)OCO2` (configuration not stated) gave an IC50 [1] of 5.14 µM and an inhibition [2] of 94.6%.

Molecule `O=C(c1ccc(Cn2c(=S)[nH]c3ccc(Br)cc3c2=O)cc1)N1CCN(c2cccc(Cl)c2)CC1` has an inhibition [2] of 54.1%.

Molecule `O=C(c1ccc(Cn2c(=S)[nH]c3ccsc3c2=O)cc1)N1CCc2ccccc2C1` has an IC50 [1] of 0.99 µM and an inhibition [2] of 106%.

In the case of `O=C(Nc1ccccc1C(=O)NCc1cccnc1)c1ccc(CN2CCc3ccccc3C2)cc1`, the IC50 [1] is reported as 6.61 µM and the inhibition [2] is reported as 89%.

With `C[C@@H](NC(=O)c1ccc(Cn2c(=S)[nH]c3ccsc3c2=O)cc1)c1ccccc1` the Activity [3] was “Active”, the Activity [4] was “Active” and the IC50 [1] was 3.8 µM. For the same molecule, the Activity [5] was “Non-Toxic” and the Activity [6] was “Active”.

`COc1ccccc1Nc1nc(C(=O)N(CC(=O)NC2CC2)Cc2ccccc2)cs1` gave an IC50 [1] of 1.07 µM and an inhibition [2] of 99.9%.

For `C[C@@H]1C[C@H]2[C@@H]3CCC4=CC(=O)C=C[C@]4(C)[C@@]3(F)[C@@H](O)C[C@]2(C)[C@@]1(O)C(=O)CO`, the Activity [8] was “Toxic”, the Activity [3] was “Active” and the Activity [15] was “Active”. For the same molecule, the Activity [9] was “Non-Toxic”, the inhibition [12] was “Active” and the Activity [16] was “Active”. The Activity [14] was “Active” and the Activity [17] was “Active”.

`CC(NC(=O)c1ccc(CN2CCc3ccccc3C2)cc1)c1ccccc1` (configuration not stated) showed an inhibition [2] of 49.1%.
